Data on eight compounds can be found in PMC10591924 (Journal of medicinal chemistry, 2023).

Series [1] is described as follows: LC-MS control: inhibitor in size exclusion buffer without enzyme. The class given is physicochemical. The note with it: 100 μM inhibitor in size exclusion buffer only (pH 7.5), overnight.
Series [2] has as its target T1, HDAC6 (Homo sapiens, UniProt Q9UBN7).
T1 sequence (Q9UBN7 1-1215): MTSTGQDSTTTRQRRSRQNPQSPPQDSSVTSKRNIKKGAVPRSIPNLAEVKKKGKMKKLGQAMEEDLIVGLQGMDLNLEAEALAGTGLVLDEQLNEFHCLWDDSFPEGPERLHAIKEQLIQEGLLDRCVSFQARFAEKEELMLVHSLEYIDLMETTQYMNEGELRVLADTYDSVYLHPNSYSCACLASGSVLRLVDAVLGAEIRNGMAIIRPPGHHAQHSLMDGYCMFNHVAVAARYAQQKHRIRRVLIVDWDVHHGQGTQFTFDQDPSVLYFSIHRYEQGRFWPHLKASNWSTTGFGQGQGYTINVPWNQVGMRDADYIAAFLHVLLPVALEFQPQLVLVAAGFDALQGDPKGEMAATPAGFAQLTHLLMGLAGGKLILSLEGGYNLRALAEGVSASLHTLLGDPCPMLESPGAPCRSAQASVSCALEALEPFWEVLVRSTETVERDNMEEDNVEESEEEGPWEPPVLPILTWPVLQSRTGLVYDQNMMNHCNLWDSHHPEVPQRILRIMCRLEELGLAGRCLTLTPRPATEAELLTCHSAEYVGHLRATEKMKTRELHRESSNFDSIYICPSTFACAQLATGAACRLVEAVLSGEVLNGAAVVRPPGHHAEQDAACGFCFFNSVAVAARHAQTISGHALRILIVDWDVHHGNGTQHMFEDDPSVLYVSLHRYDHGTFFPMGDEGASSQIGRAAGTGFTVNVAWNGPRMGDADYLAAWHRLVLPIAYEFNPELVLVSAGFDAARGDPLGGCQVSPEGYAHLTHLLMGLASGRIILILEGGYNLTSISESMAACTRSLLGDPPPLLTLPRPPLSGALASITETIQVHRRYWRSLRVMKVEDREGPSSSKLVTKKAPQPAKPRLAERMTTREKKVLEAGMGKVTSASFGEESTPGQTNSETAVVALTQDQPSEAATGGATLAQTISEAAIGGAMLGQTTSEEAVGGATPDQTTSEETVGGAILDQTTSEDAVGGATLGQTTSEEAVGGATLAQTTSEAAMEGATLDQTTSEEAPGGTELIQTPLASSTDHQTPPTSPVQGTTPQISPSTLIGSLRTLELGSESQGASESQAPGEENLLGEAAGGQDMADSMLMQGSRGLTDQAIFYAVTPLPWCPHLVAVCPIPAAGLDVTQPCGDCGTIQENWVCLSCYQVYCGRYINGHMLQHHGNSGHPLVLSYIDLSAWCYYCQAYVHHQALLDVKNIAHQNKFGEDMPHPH
Nature of the series: IC50-shift experiments at HDAC6. In kind it is biochemical. The note with it: preincubation 5, 60 and 120 min.

Series [3] addresses HDAC4 (Homo sapiens, UniProt P56524). Nature of the series: Preincubation HDAC inhibition assay, HDAC4. In kind it is biochemical. The note with it: preincubation 1 h at 25 °C.
The target in series [4] is T1, HDAC6. Put plainly: Binding kinetics via the Progression Method at HDAC6. The class given is biochemical. The settings on record: progression curves, substrate at five times KM, 37 °C.
Series [5] has as its target HDAC2 (Homo sapiens, UniProt Q92769). Put plainly: Preincubation HDAC inhibition assay, HDAC2. The class given is biochemical. The note with it: preincubation 1 h at 25 °C.
Series [6] has as its target HDAC1 (Homo sapiens, UniProt Q13547). Nature of the series: Preincubation HDAC inhibition assay, HDAC1. The note with it: preincubation 1 h at 25 °C. In kind it is biochemical.
Series [7] concerns the target T1, HDAC6. Put plainly: Preincubation HDAC inhibition assay, HDAC6. In kind it is biochemical. The note with it: preincubation 1 h at 25 °C.

Sequence of HDAC4 (P56524 whole entry): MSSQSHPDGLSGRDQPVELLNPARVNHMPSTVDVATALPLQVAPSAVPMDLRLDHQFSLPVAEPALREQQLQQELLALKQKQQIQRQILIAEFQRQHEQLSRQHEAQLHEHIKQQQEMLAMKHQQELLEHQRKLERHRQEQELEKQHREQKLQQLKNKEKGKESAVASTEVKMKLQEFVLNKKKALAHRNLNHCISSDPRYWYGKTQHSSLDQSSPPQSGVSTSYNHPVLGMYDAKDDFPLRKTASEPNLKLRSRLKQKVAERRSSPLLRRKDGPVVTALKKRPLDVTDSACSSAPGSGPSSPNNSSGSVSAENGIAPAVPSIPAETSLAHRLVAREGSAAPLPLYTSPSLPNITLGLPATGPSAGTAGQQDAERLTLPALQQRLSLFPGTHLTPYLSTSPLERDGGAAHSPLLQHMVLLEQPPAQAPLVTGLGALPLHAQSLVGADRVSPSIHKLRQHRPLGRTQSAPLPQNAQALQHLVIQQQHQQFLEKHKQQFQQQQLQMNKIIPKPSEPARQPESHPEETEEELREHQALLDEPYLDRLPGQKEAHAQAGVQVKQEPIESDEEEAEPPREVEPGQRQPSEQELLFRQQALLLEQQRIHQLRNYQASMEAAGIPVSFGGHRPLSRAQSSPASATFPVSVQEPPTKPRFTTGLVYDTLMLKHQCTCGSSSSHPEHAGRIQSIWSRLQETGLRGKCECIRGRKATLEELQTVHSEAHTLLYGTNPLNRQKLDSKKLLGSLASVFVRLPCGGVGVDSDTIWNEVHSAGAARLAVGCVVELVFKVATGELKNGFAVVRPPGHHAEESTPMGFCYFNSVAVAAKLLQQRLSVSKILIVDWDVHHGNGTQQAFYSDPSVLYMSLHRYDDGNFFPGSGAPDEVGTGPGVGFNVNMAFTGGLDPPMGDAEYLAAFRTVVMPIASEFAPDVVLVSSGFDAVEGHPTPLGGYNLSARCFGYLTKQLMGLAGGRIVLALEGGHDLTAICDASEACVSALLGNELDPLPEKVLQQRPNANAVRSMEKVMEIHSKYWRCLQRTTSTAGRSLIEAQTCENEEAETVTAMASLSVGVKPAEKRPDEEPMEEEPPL
Sequence of HDAC2 (Q92769 whole entry): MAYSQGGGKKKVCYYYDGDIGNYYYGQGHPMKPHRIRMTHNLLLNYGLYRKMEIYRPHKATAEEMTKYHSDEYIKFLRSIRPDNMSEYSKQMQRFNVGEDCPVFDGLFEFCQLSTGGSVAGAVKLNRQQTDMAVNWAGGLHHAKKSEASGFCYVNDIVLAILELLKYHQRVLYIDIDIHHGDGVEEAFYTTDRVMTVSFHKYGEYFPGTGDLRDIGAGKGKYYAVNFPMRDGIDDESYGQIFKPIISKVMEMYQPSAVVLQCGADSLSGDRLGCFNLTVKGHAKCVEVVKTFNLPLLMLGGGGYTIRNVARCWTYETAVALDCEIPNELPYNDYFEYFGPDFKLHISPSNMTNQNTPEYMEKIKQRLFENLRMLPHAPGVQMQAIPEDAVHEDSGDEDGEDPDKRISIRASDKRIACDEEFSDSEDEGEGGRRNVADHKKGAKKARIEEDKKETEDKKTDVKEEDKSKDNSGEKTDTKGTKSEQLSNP
Sequence of HDAC1 (Q13547 whole entry): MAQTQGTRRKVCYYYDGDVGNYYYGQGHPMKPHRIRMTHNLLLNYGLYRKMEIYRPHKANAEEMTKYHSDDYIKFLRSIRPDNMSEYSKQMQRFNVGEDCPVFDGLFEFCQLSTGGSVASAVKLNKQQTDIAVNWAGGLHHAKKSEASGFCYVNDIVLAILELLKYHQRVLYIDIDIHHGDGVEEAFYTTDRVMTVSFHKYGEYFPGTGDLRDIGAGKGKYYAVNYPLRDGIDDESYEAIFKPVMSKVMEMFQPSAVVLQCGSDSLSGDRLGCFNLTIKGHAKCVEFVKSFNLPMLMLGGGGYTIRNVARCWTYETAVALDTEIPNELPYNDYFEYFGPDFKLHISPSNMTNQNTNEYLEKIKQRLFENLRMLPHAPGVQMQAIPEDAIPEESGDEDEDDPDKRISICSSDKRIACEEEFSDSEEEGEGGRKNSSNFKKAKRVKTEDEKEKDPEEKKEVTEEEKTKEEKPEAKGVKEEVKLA

As for `FC(F)c1nnc(-c2cnc(NCc3ccccc3)nc2)o1` [Compound 6, N-Benzyl-5-[5-(difluoromethyl)-1,3,4-oxadiazol-2-yl]pyrimidin-2-amine], the “Hydrolysis in the absence of enzyme” value in series [1] was “does not undergo hydrolysis”. Also, in series [2], the “Dependence of HDAC6 inhibition on preincubation time” value (shortened to “Dependence of HDAC6 inhibition”) was “highly dependent on the preincubation time”. Besides, the “HDAC4 percent inhibition at 10 μM” value in series [3] was “no activity”. Besides, the “Slow-binding mechanism from kobs vs inhibitor concentration” value in series [4] is “mechanism II”. Further, the “HDAC2 percent inhibition at 10 μM” value in series [5] is reported as “no activity”. In addition, in series [6], the “HDAC1 percent inhibition at 10 μM” value is recorded as “no activity”.
With `CN(C)c1ccc(C(=O)N(CC(=O)NCc2ccccc2)Cc2ccc(-c3nnc(C(F)F)o3)cc2)cc1` [Compound 12, N-[2-(Benzylamino)-2-oxoethyl]-N-{4-[5-(difluoromethyl)-1,3,4-oxadiazol-2-yl]benzyl}−4-(dimethylamino)benzamide], the “HDAC6 percent inhibition at 10 μM” value in series [7] is “only moderate inhibitory activity”. The “HDAC4 percent inhibition at 10 μM” value in series [3] was “inactive”. Further, the “HDAC2 percent inhibition at 10 μM” value in series [5] is “inactive”. Also, the “HDAC1 percent inhibition at 10 μM” value in series [6] was “inactive”.
Take `O=C(CCCCCCC(=O)Nc1ccccc1)NO` [Vorinostat, reference compound]: the “Dependence of HDAC6 inhibition” value in series [2] is “did not depend on the preincubation time”.
On to `FC(F)(F)c1nnc(-c2cnc(NCc3ccccc3)nc2)o1` [Compound 17, N-Benzyl-5-[5-(trifluoromethyl)-1,3,4-oxadiazol-2-yl]pyrimidin-2-amine], for which the “Dependence of HDAC6 inhibition” value in series [2] is recorded as “substantial decrease in the HDAC6 IC50 values upon preincubation”. Also, the “HDAC4 percent inhibition at 10 μM” value in series [3] was “no inhibition”. Also, the “Slow-binding mechanism from kobs vs inhibitor concentration” value in series [4] is “single-step slow-binding mechanism I”. In series [5], the “HDAC2 percent inhibition at 10 μM” value was “no inhibition”. Moreover, the “HDAC1 percent inhibition at 10 μM” value in series [6] is reported as “no inhibition”.
On to `O=C(NNC(=O)C(F)F)c1cnc(NCc2ccccc2)nc1` [Compound 13, 2-(Benzylamino)-N’-(2,2-difluoroacetyl)pyrimidine-5-carbohydrazide], for which the “HDAC6 percent inhibition at 10 μM” value in series [7] is “does not show any inhibitory activity”.
Turning to `COc1ccc(CNc2ncc(-c3nnc(C(F)F)o3)cn2)cc1` [Compound 7, 5-[5-(Difluoromethyl)-1,3,4-oxadiazol-2-yl]-N-(4-methoxybenzyl)pyrimidin-2-amine], the “HDAC4 percent inhibition at 10 μM” value in series [3] is “no activity”. In addition, the “HDAC2 percent inhibition at 10 μM” value in series [5] is “no activity”. In addition, in series [6], the “HDAC1 percent inhibition at 10 μM” value is “no activity”.
In the case of `CCCCN(Cc1ccc(-c2nnc(C(F)F)o2)cc1)C(=O)c1ccccc1` [Compound 10, N-Butyl-N-{4-[5-(difluoromethyl)-1,3,4-oxadiazol-2-yl]benzyl}benzamide], the “HDAC6 percent inhibition at 10 μM” value in series [7] is recorded as “only moderate inhibitory activity”. In series [3], the “HDAC4 percent inhibition at 10 μM” value was “inactive”. For the same compound, the “HDAC2 percent inhibition at 10 μM” value in series [5] was “inactive”. The “HDAC1 percent inhibition at 10 μM” value in series [6] is “inactive”.
Consider `CCCCN(Cc1ccc(-c2nnc(C(F)F)o2)cc1)C(=O)Nc1ccccc1` [Compound 9, 1-Butyl-1-{4-[5-(difluoromethyl)-1,3,4-oxadiazol-2-yl]benzyl}−3-phenylurea], for which the “HDAC6 percent inhibition at 10 μM” value in series [7] is “only moderate inhibitory activity”. Also, the “HDAC4 percent inhibition at 10 μM” value in series [3] was “inactive”. Moreover, in series [5], the “HDAC2 percent inhibition at 10 μM” value is “inactive”. In series [6], the “HDAC1 percent inhibition at 10 μM” value was “inactive”.
